Laboratory results taken from a compilation of properties of binary mixtures (doi:10.1016/j.jct.2020.106320).

Assay: xn = mol fraction of the nth substance listed
Conditions: 100 kPa

CC[n+]1ccn(CCOC)c1.N#C[S-] + CCO
viscosity [mPa·s]
Conditions | x1 = 0.1 | x1 = 0.1999 | x1 = 0.3002 | x1 = 0.3995 | x1 = 0.5001 | x1 = 0.6 | x1 = 0.7 | x1 = 0.797 | x1 = 0.8964 | x1 = 1
288.15 K | 2.39 | 3.97 | 6.39 | 10.15 | 15.11 | 24.1 | 33.1 | 53.1 | 70.8 | 93.1
293.15 K | – | 3.53 | 5.59 | – | 12.79 | – | 27.1 | – | 55.6 | 70.8
298.15 K | 1.95 | 3.16 | – | 7.64 | 10.96 | 17.44 | 22.7 | 34.3 | 44.3 | 55.8
303.15 K | 1.77 | 2.85 | – | 6.7 | 9.52 | 14.4 | 19.4 | 28.2 | – | –
308.15 K | 1.613 | – | 3.97 | 5.93 | 8.32 | 12.12 | – | – | – | –
313.15 K | 1.476 | 2.34 | 3.58 | – | 7.34 | 10.4 | 14.37 | – | 24.7 | 29.7
318.15 K | 1.355 | – | 3.25 | 4.71 | 6.51 | 9.03 | 12.25 | 17.33 | 20.9 | 24.9

CCO + CC[n+]1ccn(CCOC)c1.N#C[S-]
x2 = 0
Conditions | viscosity [mPa·s]
288.15 K | 1.319
293.15 K | 1.194
298.15 K | 1.085
303.15 K | 0.988
313.15 K | 0.826
318.15 K | 0.757
